Assay results taken from publication PMC3834215, “RedOx Status, Proteasome and APEH: Insights into Anticancer Mechanisms of t10,c12-Conjugated Linoleic Acid Isomer on A375 Melanoma Cells” (PLoS ONE, 2013).

Key:
20S human proteasome = target: T1, 20S human proteasome (Homo sapiens, UniProt P28074); test: Cell-free inhibition of chymotrypsin-like (CT-like) activity of 20S proteasome; type: biochemical; settings: for IC50: 30 min pre-incubation, 37 °C, pH 7.5, N-Suc-LLVT-AMC 0.080 mM, read-out: IC50 on 20S isoform (CT-like activity)
T1 construct: purchased Boston Biochem
Method: (§1) The fluorescent substrate N-succinyl-Leu-Leu-Val-Tyr-7-amido-4-methylcoumarin (N-Suc-LLVT-AMC) was used for measurement of the CT-like activity of the proteasome, both in cell free assays and in cancer cell extracts, at a final concentration of 0.080 mM at 37 °C in Tris buffer pH 7.5, following the procedure described in Palmieri et al..
(§2) Protease inhibition activities of CLA isomers and fatty acids were carried out using a fixed amount of commercially available APEH or 20S, 20Si, 26S proteasomes (3-5 nM or 0.12 mg/mL, respectively), and increasing concentrations of fatty acid. Mixtures were pre-incubated for 30min at 37 °C in 50 mM Tris-HCl buffer pH 7.5, before addition of the specific substrate, and the enzymatic activities were followed as described above.

20Si human proteasome = target: T2, 20Si human proteasome (Homo sapiens, UniProt P28062); test: Cell-free inhibition of CT-like activity of 20Si proteasome; type: biochemical; settings: for IC50: 30 min pre-incubation, 37 °C, pH 7.5, N-Suc-LLVT-AMC 0.080 mM, read-out: IC50 on 20Si isoform (CT-like activity)
T2 construct: purchased Boston Biochem
Method: The fluorescent substrate N-succinyl-Leu-Leu-Val-Tyr-7-amido-4-methylcoumarin (N-Suc-LLVT-AMC) was used for measurement of the CT-like activity of the proteasome, both in cell free assays and in cancer cell extracts, at a final concentration of 0.080 mM at 37 °C in Tris buffer pH 7.5, following the procedure described in Palmieri et al. [25].

[1] = system: A375M metastatic melanoma cells; test: MTT cell viability, A375M; type: cell-based, human; settings: 24h exposure, 50 to 200 μM
Method: (§3) The colorimetric 3-(4,5-dimethylthiazol-2)-2,5-diphenyltetrazolium bromide (MTT) (Sigma Aldrich, Milan) assay was used to quantify cell viability. Briefly, cells were incubated in 96 well microplates in the appropriate complete medium with standardized densities for 24h as pre-incubation process. The medium was removed and replaced by medium containing different doses of the different CLA-isomers for 24h. Following treatment, the medium was removed and the cells were incubated with DMEM w/o red phenol with 0.5 mg/ml MTT for additional 2 to 4h at 37 °C. After removal of the medium and MTT, cells in each plate were incubated with 0.1 M HCl/isopropanol to dissolve the MTT-formazan crystals. Absorbance at 590 nm was recorded with a plate reader (Bio Rad mod 680). The relative number of viable cells was expressed as a percentage of the control.

[2] = system: MDA-MB mammary adenocarcinoma cells; test: MTT cell viability, MDA-MB; type: cell-based, human; settings: 24h exposure, 50 to 200 μM
Method: as §3

A375 melanoma cells = test: MTT cell viability, A375; type: cell-based, human; settings: for reduction of cell viability: A375, 24h exposure, 50 to 200 μM
Method: as §3

[3] = system: all cancer cells (U87, MCF7, MDA-MB, HeLa, Caco2, HepG2, A375M, A375); test: MTT cell viability, eight cancer cell lines; type: cell-based, human; settings: up to 200 μM, 24h, data not shown
Method: as §3

[4] = system: HeLa cervical carcinoma cells; test: MTT cell viability, HeLa; type: cell-based, human; settings: 24h exposure, 50 to 200 μM
Method: as §3

Bcl-2 in A375 cells = test: Bcl-2 protein expression by immunoblotting in A375; type: cell-based, human; settings: A375, 24h, 50-200 μM
Method: (§4) Following the treatments, cells were washed three times with ice cold phosphate-buffer saline (PBS) and cytosolic extracts were prepared accordingly to a published procedure. Protein concentrations were determined in supernatants by BCA protein assay reagent kit (Pierce). Western blotting analyses were performed as previously described.

[5] = system: intracellular GSH in A375 cells; test: Intracellular GSH in A375; type: cell-based, human; settings: A375, 24h, 50, 100 or 200 μM
Method: Intracellular concentration of reduced and oxidized glutathione (GSH and GSSG, respectively) were quantified using the 5,5'-dithiobis(2-nitrobenzoic acid)-GSSG reductase recycling assay. GSSG content was preliminarily evaluated in cytosolic extracts of treated or untreated cells upon the addition of 10 mM 1-methyl-2-vinylpyridinium trifluoromethanesulfonate (a specific GSH scavenger).

Porcine liver APEH = target: T3, Porcine liver APEH (Sus scrofa, UniProt P19205); test: Cell-free APEH inhibition assay (acetyl-Ala-pNA); type: biochemical
T3 construct: purchased Takara; host or cells: porcine liver
T3 sequence (P19205 1-732): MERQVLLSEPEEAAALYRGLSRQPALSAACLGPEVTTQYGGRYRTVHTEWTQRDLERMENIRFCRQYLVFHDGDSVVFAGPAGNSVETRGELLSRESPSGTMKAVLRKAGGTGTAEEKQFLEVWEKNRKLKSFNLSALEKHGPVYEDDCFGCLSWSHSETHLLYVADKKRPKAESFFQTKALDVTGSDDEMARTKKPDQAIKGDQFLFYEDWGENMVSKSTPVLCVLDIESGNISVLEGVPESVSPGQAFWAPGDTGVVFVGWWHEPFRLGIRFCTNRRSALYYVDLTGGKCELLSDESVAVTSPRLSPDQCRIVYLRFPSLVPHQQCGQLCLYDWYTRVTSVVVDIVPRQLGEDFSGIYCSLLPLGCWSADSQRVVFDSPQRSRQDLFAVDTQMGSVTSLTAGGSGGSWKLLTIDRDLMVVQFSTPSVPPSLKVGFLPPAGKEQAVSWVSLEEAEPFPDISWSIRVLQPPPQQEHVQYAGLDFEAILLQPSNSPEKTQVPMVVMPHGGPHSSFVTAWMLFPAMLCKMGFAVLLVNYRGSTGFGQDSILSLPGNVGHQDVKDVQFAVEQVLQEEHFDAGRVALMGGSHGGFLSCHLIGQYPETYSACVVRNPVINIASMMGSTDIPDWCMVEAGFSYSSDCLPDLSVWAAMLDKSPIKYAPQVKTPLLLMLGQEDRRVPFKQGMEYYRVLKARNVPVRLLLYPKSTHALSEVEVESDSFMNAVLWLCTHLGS
Method: (§5) APEH activity was measured spectrophotometrically using the chromogenic substrate acetyl-Ala-pNA (Bachem) as described before. The reaction mixture containing pure APEH or an appropriate amount of cell extract was incubated at 37 °C in 50 mM Tris-HCl, pH 7.5 (Tris Buffer).
as §2

[6] = system: proteasomal CT-like activity in A375 cells; test: Proteasomal CT-like activity in A375 cytoplasmic extracts after treatment; type: cell-based, human; settings: for proteasomal CT-like activity inhibited to: 24h
Method: as §1, §4

caspase 3 in A375 cells = test: Caspase 3 activity in A375 cells; type: cell-based, human; settings: A375, 24h, doses 50, 100 or 200 μM, dose-dependent, maximum
Method: Pro-apoptotic and cytotoxic ability of CLA isomers were assayed by measuring caspase 3 and the activity of lactate dehydrogenase (LDH) in the spent media, respectively [25]. The caspase 3 activity, measured at 37 °C and pH 7.5, was expressed as fold increase compared to the control culture.

[7] = system: APEH activity in A375 cells; test: APEH activity in A375 cytoplasmic extracts after treatment; type: cell-based, human
Method: as §5, §4

APEH mRNA in A375 cells = test: APEH mRNA by qRT-PCR in A375; type: cell-based, human
Method: (§6) mRNA expression levels of APEH and β-5 proteasome subunit were determined in treated or untreated cells to investigate on the functional relationship existing between APEH and proteasome activities and on their involvement in the anticancer activity of CLA.
(§7) Total RNA was isolated from the human cell lines (~10^6 cells aliquots) according to the SV Total RNA Isolation System (Promega) protocol, with an on column DNase I step. Total RNA concentrations were determined using a Qubit® Fluorometer (Invitrogen). RNAs were then reverse transcribed using the Transcriptor First Strand cDNA Synthesis Kit (Roche). 100 ng of reverse transcribed complementary DNA, and its dilution series to calculate the efficacy of primers, were amplified by quantitative real-time PCR (qRT-PCR) on an iCycleriQ™ (Bio-Rad) using 300 nM gene-specific primers, Maxima® SYBR Green/Fluorescein qPCR Master Mix (2X) (Fermentas) and the following PCR conditions: 1 cycle at 95 °C for 10min, and 40 cycles of 95 °C for 15s , 60 °C for 30s, and 72 °C for 30s.
(§8) The expression level of β-actin gene was used as an internal control for normalization (ref gene). Raw cycle threshold values (Ct values) obtained for the target genes were compared to the Ct value obtained for the ref gene. […]

[8] = system: β-5 proteasome subunit mRNA in A375 cells; test: β-5 proteasome subunit mRNA by qRT-PCR in A375; type: cell-based, human
Method: as §6, §7, §8

human fibroblasts = type: cell-based
Method: Human hepatoma cells (HepG2) were seeded (2x10^4cells/cm^2) and maintained for 24h in MEM (Gibco Invitrogen; Milano) medium supplemented with 2 mM L-glutamine, 1% nonessential amino acids and 10% FBS. Colon carcinoma (Caco-2), cervical carcinoma (Hela), glioblastoma (U87), melanoma (A375, A375M) and mammary adenocarcinoma (MCF7, MDA-MB) were seeded (1x10^4cells/cm^2) and grown in DMEM supplemented with 10% FBS, 2 mM L-glutamine. HepG2, Hela, U87, Caco-2, MCF7, MDA-MB, A375 and A375 metastatic melanoma (A375M) cell lines were obtained by ATCC (LCG standards, Milano, Italy). Normal human dermal fibroblast (NDHF) within 8th passage were seeded at a density of 2x10^4 cells/cm^2 and cultured in fibroblast growth medium (FGM-2; Lonza, Milan, Italy) containing 2% FBS, 50 μg/mL gentamycin and amphotericin B, 10μg/mL fibroblast growth factor and insulin. BHK21 cells (kindly donated by Dr. David Y Thomas, McGill University Montreal Canada) were cultured in DMEM/F12, 5% FBS, 1 mM L-glutamine, 200 µg/mL methotrexate, and 100units/mL penicillin-streptomycin. […]
The colorimetric 3-(4,5-dimethylthiazol-2)-2,5-diphenyltetrazolium bromide (MTT) (Sigma Aldrich, Milan) assay was used to quantify cell viability. […] Absorbance at 590 nm was recorded with a plate reader (Bio Rad mod 680). The relative number of viable cells was expressed as a percentage of the control.

γGCL mRNA in A375 cells = test: γGCL mRNA by qRT-PCR in A375; type: cell-based, human; settings: A375, 200 μM, end of time course
[9] = negative control, data not shown

## CCCCCC/C=C/C=C\CCCCCCCC(=O)O [c9,t11-CLA, cis9,trans11 (c9,t11-CLA)]
20S human proteasome
  IC50: 31.2 ± 8.8 µM
20Si human proteasome
  IC50: 6.4 ± 1 µM
[1]
  reduction of cell viability: < 40%
[2]
  reduction of cell viability: < 40%
A375 melanoma cells
  reduction of cell viability: < 40%

## CCCCCCCC(=O)O [octanoic acid, reference compound]
[3]
  effect on cell viability: no significant results
20S human proteasome; [9]
  inhibitory effect on 20S CT-like activity: only negligible effects
20Si human proteasome; [9]
  inhibitory effect on 20Si CT-like activity: only negligible effects

## CCCCCC/C=C/C=C/CCCCCCCC(=O)O [t9,t11-CLA]
A375 melanoma cells
  reduction of cell viability: about 50%

## CCCCC/C=C\C=C\CCCCCCCCC(=O)O [t10,c12-CLA, trans10,cis12 (t10,c12-CLA)]
[4]
  reduction of cell viability: 40%
20S human proteasome
  IC50: 14.8 ± 2 µM
Bcl-2 in A375 cells
  maximum reduction of Bcl-2 expression: 80%
[5]
  intracellular GSH: significant decline
Porcine liver APEH; 37 °C, pH 7.5
  IC50: 110 ± 11.7 µM
Porcine liver APEH; dose-dependent
  maximum inhibition of APEH: about 41%
[6]; A375, 50 μM, plateau after 8h
  proteasomal CT-like activity plateau, % of starting value: 70%
[6]; A375, 100 μM
  proteasomal CT-like activity inhibited to: 50%
[6]; A375, 200 μM
  proteasomal CT-like activity inhibited to: 25%
20Si human proteasome
  IC50: 1.1 ± 0.2 µM
Caspase 3 in A375 cells
  caspase 3 activation compared to the control culture: eightfold increase
[7]; A375, 50 μM, plateau after 8h
  APEH activity plateau, % of starting value: 80%
[7]; A375, 200 μM, time course
  APEH activity plateau, % of starting level: 70%
[1]
  reduction of cell viability: 51%
APEH mRNA in A375 cells; A375, 50 μM, time course
  APEH mRNA stable final value vs initial expression level: approximately one-fold lower
APEH mRNA in A375 cells; A375, 200 μM, 24h
  APEH mRNA level: strongly down-regulated
[8]; A375, 50 μM, time course
  β-5 mRNA stable final value vs initial expression level: approximately one-fold lower
[8]; A375, 200 μM, 24h
  proteasome (β-5) mRNA level: strongly down-regulated
Human fibroblasts
  toxic effects on fibroblast proliferation: lack of toxic effects
A375 melanoma cells
  reduction of cell viability: 63%
γGCL mRNA in A375 cells
  down-regulation of γGCL mRNA levels: 1.5 fold

## CC(C)C[C@H](NC(=O)[C@H](Cc1ccccc1)NC(=O)c1cnccn1)B(O)O [BTZ, bortezomib, reference compound]
20S human proteasome; plateau of dose-response curve
  inhibition reached, 20S: about 60%
A375 melanoma cells; Homo sapiens, A-375, read-out: IC50 (dose accountable for 50% decrease of cell viability), A375, 24h
  IC50: 0.01 ± 2e-05 µM
